Experimental data from ChEMBL document CHEMBL6182942, “Discovery of a Selective, Novel TGF-βR1 Inhibitor GFH018 for the Treatment of Solid Tumors” (J Med Chem, 2025).
Active and inactive are the calls of the source. The calls are words filed in the database; no cut-off is given here.

Experiments:
[1] = target: Mitogen-activated protein kinase 14 (Homo sapiens, UniProt Q16539); experiment: Inhibition of p38alpha (unknown origin) measured after 40 mins in presence of [gamma-33P]ATP by microbeta liquid scintillation counting analysis; format: toxicity
NIH3T3 = experiment: Antiproliferative activity against mouse NIH/3T3 cells by celltitter-glo assay; format: functional, cell-based
[2] = Apparent permeability across apical to basolateral side in dog MDCK-MDR1 cells at 2 uM measured over 150 mins by LC-MS/MS analysis; format: ADME, cell-based, Canis lupus familiaris
[3] = Oral bioavailability in CD-1 mouse at 75 mg/kg via gavage by LC-MS/MS analysis; format: ADME, organism-based; settings: in vivo
[4] = Protein binding in mouse plasma at 0.2 to 10 uM measured after 4 hrs by equilibrium dialysis based LC-MS/MS analysis; format: ADME, cell-free; settings: dose 0.2-10 µM, read-out: PPB (converted)
Cytochrome P450 2B6 = Cytochrome P450 2B6 (Homo sapiens, UniProt P20813); experiment: Inhibition of CYP2B6 in human liver microsomes using bupropion as substrate preincubated for 10 mins followed by NADPH regeneration system addition and measured after 10 mins by LC-MS/MS analysis; format: ADME, Microsome
Cytochrome P450 3A4 = Cytochrome P450 3A4 (Homo sapiens, UniProt P08684); experiment: Inhibition of CYP3A4 in human liver microsomes using midazolam as substrate preincubated for 10 mins followed by NADPH regeneration system addition and measured after 3 mins by LC-MS/MS analysis; format: ADME, Microsome
[5] = Volume of distribution at steady state in Sprague-Dawley rat at 1 mg/kg, iv by LC-MS/MS analysis; format: ADME, organism-based; settings: in vivo, read-out: Vdss
[6] = Clearance in Sprague-Dawley rat at 1 mg/kg, iv by LC-MS/MS analysis; format: ADME, organism-based; settings: in vivo
[7] = AUC (0 to last) in Sprague-Dawley rat at 1 mg/kg, iv by LC-MS/MS analysis; format: ADME, organism-based; settings: in vivo
[8] = Half life in Beagle dog at 1 mg/kg, iv by LC-MS/MS analysis; format: ADME, organism-based, Canis lupus familiaris; settings: in vivo
[9] = Half life in Beagle dog at 5 mg/kg, po by LC-MS/MS analysis; format: ADME, organism-based, Canis lupus familiaris; settings: in vivo
H22 = experiment: Antitumor activity against mouse H22 cells implanted in BALB/c mouse assessed as tumor growth inhibition at 50 mg/kg, po administered twice daily for 11 days and measured 3 times per week during compound dosing relative to control; format: functional; settings: H22, 264 h, time 11 day, read-out: TGI
CT26 = experiment: Synergistic antitumor activity against mouse CT26 cells implanted in BALB/c mouse assessed as tumor growth inhibition at 50 mg/kg, po administered twice daily in presence of antimouse-PD-L1 antibody; format: functional; settings: read-out: TGI
[10] = Toxicity in mouse CT26 cell implanted BALB/c mouse assessed as change in body weight at 50 mg/kg, po administered twice daily; format: organism-based; settings: in vivo
4T1-Luc = experiment: Antimetastatic activity against mouse 4T1-Luc cells implanted in BALB/c mouse assessed as reduction in metastatic rate in kidney at 100 mg/kg, po administered daily for 32 days and measured on day 30 to 35 by IVIS fluorescence analysis; format: functional, organism-based; settings: time 35.0 day
[11] = Drug metabolism in rat liver microsomes; format: ADME, Microsome
[12] = Drug metabolism in human hepatocytes; format: ADME, cell-based, Hepatocyte
[13] = Drug metabolism in mouse hepatocytes; format: ADME, cell-based, Hepatocyte
[14] = target: Receptor-interacting serine/threonine-protein kinase 2 (Homo sapiens) (UniProt O43353); experiment: Inhibition of RIPK2 (unknown origin) assessed as residual activity at 1 uM relative to control
[15] = Mutagenicity in Salmonella typhimurium TA100 in presence of liver S9 fraction by Ames test; format: toxicity, subcellular; settings: salmonella enterica subsp. enterica serovar typhimurium

Sequence of Cytochrome P450 3A4 (P08684 whole entry): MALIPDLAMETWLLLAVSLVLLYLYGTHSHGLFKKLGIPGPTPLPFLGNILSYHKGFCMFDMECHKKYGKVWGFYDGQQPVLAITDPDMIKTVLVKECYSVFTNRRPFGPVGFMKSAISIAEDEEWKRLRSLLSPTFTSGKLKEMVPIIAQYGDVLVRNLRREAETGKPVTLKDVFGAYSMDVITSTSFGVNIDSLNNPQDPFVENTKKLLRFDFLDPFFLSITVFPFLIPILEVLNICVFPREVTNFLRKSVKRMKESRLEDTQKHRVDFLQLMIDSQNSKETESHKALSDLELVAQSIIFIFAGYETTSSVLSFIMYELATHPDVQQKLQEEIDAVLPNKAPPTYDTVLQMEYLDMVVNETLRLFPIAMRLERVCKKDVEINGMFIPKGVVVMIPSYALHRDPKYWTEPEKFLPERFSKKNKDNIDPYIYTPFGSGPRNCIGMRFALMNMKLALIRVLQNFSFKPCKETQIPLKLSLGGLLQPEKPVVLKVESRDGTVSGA
Sequence of Receptor-interacting serine/threonine-protein kinase 2 (Homo sapiens) (O43353 whole entry): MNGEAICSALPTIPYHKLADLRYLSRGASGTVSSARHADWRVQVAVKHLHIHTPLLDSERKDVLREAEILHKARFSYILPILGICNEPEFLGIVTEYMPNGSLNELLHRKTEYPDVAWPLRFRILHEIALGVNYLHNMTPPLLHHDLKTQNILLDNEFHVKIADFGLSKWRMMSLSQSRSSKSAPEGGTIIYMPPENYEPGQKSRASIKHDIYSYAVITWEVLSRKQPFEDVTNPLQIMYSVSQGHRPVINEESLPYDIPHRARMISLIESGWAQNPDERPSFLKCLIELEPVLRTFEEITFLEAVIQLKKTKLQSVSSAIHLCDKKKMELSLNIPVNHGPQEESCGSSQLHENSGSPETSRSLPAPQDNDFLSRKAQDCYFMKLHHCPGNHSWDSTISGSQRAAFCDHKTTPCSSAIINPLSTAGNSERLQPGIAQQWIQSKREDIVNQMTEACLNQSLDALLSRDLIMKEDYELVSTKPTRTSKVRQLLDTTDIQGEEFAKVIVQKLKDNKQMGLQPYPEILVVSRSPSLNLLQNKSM
Sequence of Mitogen-activated protein kinase 14 (Q16539 whole entry): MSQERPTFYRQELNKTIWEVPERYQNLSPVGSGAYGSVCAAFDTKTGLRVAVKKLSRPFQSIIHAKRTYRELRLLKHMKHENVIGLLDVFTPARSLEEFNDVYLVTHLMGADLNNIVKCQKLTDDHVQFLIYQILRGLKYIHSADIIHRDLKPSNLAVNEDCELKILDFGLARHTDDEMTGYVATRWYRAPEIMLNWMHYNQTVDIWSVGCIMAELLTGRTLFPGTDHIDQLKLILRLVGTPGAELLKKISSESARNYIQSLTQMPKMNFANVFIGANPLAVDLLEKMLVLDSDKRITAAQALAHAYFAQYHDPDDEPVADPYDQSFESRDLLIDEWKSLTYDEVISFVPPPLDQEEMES
Sequence of Cytochrome P450 2B6 (P20813 whole entry): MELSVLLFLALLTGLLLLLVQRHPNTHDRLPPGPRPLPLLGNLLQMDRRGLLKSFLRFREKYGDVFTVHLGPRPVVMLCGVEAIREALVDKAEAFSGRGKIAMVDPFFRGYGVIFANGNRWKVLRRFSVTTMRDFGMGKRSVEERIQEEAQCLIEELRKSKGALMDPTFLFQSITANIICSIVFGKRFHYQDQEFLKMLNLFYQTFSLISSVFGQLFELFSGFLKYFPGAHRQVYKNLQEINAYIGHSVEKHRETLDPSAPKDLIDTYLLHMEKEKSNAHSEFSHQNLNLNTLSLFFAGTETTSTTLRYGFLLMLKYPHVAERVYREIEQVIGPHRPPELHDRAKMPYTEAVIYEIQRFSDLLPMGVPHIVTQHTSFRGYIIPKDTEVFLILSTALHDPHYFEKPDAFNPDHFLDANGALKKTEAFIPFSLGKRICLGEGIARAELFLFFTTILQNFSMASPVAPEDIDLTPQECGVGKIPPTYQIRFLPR

Cc1cccc(-c2nn3c(c2-c2ccc4ncnn4c2/C=C/C(N)=O)CCC3)n1
IC50 [1]: 2650 nM
IC50 (NIH3T3): 730 nM
Papp A→B at 2.5 h, 2 µM [2]: 0.39 ×10⁻⁶ cm/s
bioavailability [3]: 36.8%
fraction unbound at 4 h, up to 10 µM [4]: 0.554
IC50 (Cytochrome P450 2B6): > 100 µM
IC50 (Cytochrome P450 3A4): > 100 µM
Vd [5]: 1.44 L/kg
clearance [6]: 33.3 mL/min/kg
AUClast [7]: 1332 nM.hr/ml
half-life [8]: 190 min
half-life [9]: 170 min
inhibition in vivo at 50 mg/kg (H22): 57.5%
inhibition in vivo at 50 mg/kg (CT26): 79.4%
Activity [10]: Non-toxic
Activity (4T1-Luc): Active
Drug metabolism [11]: metabolite_detected
Drug metabolism [12]: metabolite_detected
Drug metabolism [13]: metabolite_detected
Activity [14]: < 50%
Activity [15]: Non-toxic
